Reference: PubChem BioAssay (NCI)
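Grown in 96-well plates, cells were treated for 48 hours with each compound at five concentrations. Insufficient inhibition: endpoint recorded as highest concentration tested. Here, GI50 denotes the concentration required for 50% inhibition of growth. TGI: concentration producing complete growth inhibition.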

Columns and labels:
Experiment in all cases: NCI anticancer screen, dose series, 48 h
K-562 leukemia = tested on: K-562 leukemia
SW-620 colon = tested on: SW-620 colon
NCI-H226 lung = tested on: NCI-H226 lung
HCT-116 colon = tested on: HCT-116 colon
HCC-2998 colon = tested on: HCC-2998 colon
HOP-92 NSCLC = tested on: HOP-92 NSCLC
MDA-MB-468 breast = tested on: MDA-MB-468 breast
A549 NSCLC = tested on: A549 NSCLC
TK-10 renal = tested on: TK-10 renal
SF-295 CNS = tested on: SF-295 CNS
HL-60(TB) leukemia = tested on: HL-60(TB) leukemia
786-0 renal = tested on: 786-0 renal
UACC-257 melanoma = tested on: UACC-257 melanoma
HS 578T breast = tested on: HS 578T breast
LOX IMVI melanoma = tested on: LOX IMVI melanoma
KM12 colon = tested on: KM12 colon
NCI-H460 lung = tested on: NCI-H460 lung
MDA-MB-231 breast = tested on: MDA-MB-231 breast
COLO 205 colon = tested on: COLO 205 colon
A498 renal = tested on: A498 renal
OVCAR-8 ovarian = tested on: OVCAR-8 ovarian
NCI-H522 lung = tested on: NCI-H522 lung
NCI-H23 lung = tested on: NCI-H23 lung
SF-268 CNS = tested on: SF-268 CNS
HT29 colon = tested on: HT29 colon
ACHN renal = tested on: ACHN renal
OVCAR-5 ovarian = tested on: OVCAR-5 ovarian
SN12C renal = tested on: SN12C renal
UACC-62 melanoma = tested on: UACC-62 melanoma
PC-3 prostate = tested on: PC-3 prostate
SK-OV-3 ovarian = tested on: SK-OV-3 ovarian
MALME-3M melanoma = tested on: MALME-3M melanoma
MCF7 breast = tested on: MCF7 breast
RXF 393 renal = tested on: RXF 393 renal
HOP-62 NSCLC = tested on: HOP-62 NSCLC
OVCAR-3 ovarian = tested on: OVCAR-3 ovarian
OVCAR-4 ovarian = tested on: OVCAR-4 ovarian
MOLT-4 leukemia = tested on: MOLT-4 leukemia
RPMI-8226 leukemia = tested on: RPMI-8226 leukemia
MDA-MB-435 = tested on: MDA-MB-435
SNB-75 CNS = tested on: SNB-75 CNS
BT-549 breast = tested on: BT-549 breast
U251 CNS = tested on: U251 CNS
SNB-19 CNS = tested on: SNB-19 CNS
T-47D breast = tested on: T-47D breast
SF-539 CNS = tested on: SF-539 CNS
CCRF-CEM leukemia = tested on: CCRF-CEM leukemia
M14 melanoma = tested on: M14 melanoma
DU-145 prostate = tested on: DU-145 prostate
UO-31 renal = tested on: UO-31 renal
SK-MEL-2 melanoma = tested on: SK-MEL-2 melanoma
SK-MEL-5 melanoma = tested on: SK-MEL-5 melanoma
CAKI-1 renal = tested on: CAKI-1 renal
SK-MEL-28 melanoma = tested on: SK-MEL-28 melanoma
HCT-15 colon = tested on: HCT-15 colon
IGROV1 ovarian = tested on: IGROV1 ovarian

`Nc1cccnc1/C=N/NC(=S)NCCNC(=O)c1ccc(-n2nc(-c3ccccc3O)nc2-c2ccccc2O)cc1` showed a GI50 (K-562 leukemia) of 115 nM, a TGI (K-562 leukemia) greater than 100000 nM and a GI50 (SW-620 colon) of 648 nM. It also gave a TGI (SW-620 colon) greater than 100000 nM, a GI50 (NCI-H226 lung) of 803 nM and a TGI (NCI-H226 lung) of 4850 nM. It also gave a GI50 (HCT-116 colon) of 305 nM, a TGI (HCT-116 colon) of 6670 nM and a GI50 (HCC-2998 colon) of 533 nM. The TGI (HCC-2998 colon) was 8160 nM, the GI50 (HOP-92 NSCLC) was 283 nM and the TGI (HOP-92 NSCLC) was 5160 nM. The GI50 (MDA-MB-468 breast) was 249 nM, the TGI (MDA-MB-468 breast) was 935 nM and the GI50 (A549 NSCLC) was 1230 nM. The TGI (A549 NSCLC) was greater than 23800 nM, the GI50 (TK-10 renal) was 1270 nM and the TGI (TK-10 renal) was greater than 29700 nM. The GI50 (SF-295 CNS) was 541 nM, the TGI (SF-295 CNS) was 2970 nM and the GI50 (HL-60(TB) leukemia) was 261 nM. For the same compound, the TGI (HL-60(TB) leukemia) was 901 nM, the GI50 (786-0 renal) was 790 nM and the TGI (786-0 renal) was 3730 nM. The GI50 (UACC-257 melanoma) was 838 nM, the TGI (UACC-257 melanoma) was greater than 20700 nM and the GI50 (HS 578T breast) was 232 nM. It also gave a TGI (HS 578T breast) greater than 100000 nM, a GI50 (LOX IMVI melanoma) of 331 nM and a TGI (LOX IMVI melanoma) of 1880 nM. It also gave a GI50 (KM12 colon) of 480 nM, a TGI (KM12 colon) of 6530 nM and a GI50 (NCI-H460 lung) of 396 nM. For the same compound, the TGI (NCI-H460 lung) was 2460 nM, the GI50 (MDA-MB-231 breast) was 471 nM and the TGI (MDA-MB-231 breast) was 14900 nM. It also gave a GI50 (COLO 205 colon) of 329 nM, a TGI (COLO 205 colon) of 11700 nM and a GI50 (A498 renal) of 29700 nM. The TGI (A498 renal) was greater than 100000 nM, the GI50 (OVCAR-8 ovarian) was 418 nM and the GI50 (NCI-H522 lung) was 154 nM. For the same compound, the TGI (NCI-H522 lung) was 798 nM, the GI50 (NCI-H23 lung) was 454 nM and the TGI (NCI-H23 lung) was 6970 nM. It also gave a GI50 (SF-268 CNS) of 557 nM, a TGI (SF-268 CNS) greater than 64400 nM and a GI50 (HT29 colon) of 472 nM. The TGI (HT29 colon) was 2720 nM, the GI50 (ACHN renal) was 1210 nM and the TGI (ACHN renal) was 18500 nM. The GI50 (OVCAR-5 ovarian) was 1570 nM, the TGI (OVCAR-5 ovarian) was greater than 28400 nM and the GI50 (SN12C renal) was 494 nM. For the same compound, the TGI (SN12C renal) was 6350 nM, the GI50 (UACC-62 melanoma) was 236 nM and the TGI (UACC-62 melanoma) was 1050 nM. It also gave a GI50 (PC-3 prostate) of 376 nM, a TGI (PC-3 prostate) of 13200 nM and a GI50 (SK-OV-3 ovarian) of 594 nM. It also gave a TGI (SK-OV-3 ovarian) of 3510 nM, a GI50 (MALME-3M melanoma) of 628 nM and a TGI (MALME-3M melanoma) of 8940 nM. It also gave a GI50 (MCF7 breast) of 189 nM, a TGI (MCF7 breast) of 4900 nM and a GI50 (RXF 393 renal) of 1040 nM. It also gave a TGI (RXF 393 renal) of 4060 nM, a GI50 (HOP-62 NSCLC) of 487 nM and a TGI (HOP-62 NSCLC) of 5460 nM. For the same compound, the GI50 (OVCAR-3 ovarian) was 366 nM, the TGI (OVCAR-3 ovarian) was 15900 nM and the GI50 (OVCAR-4 ovarian) was 729 nM. For the same compound, the TGI (OVCAR-4 ovarian) was greater than 100000 nM, the GI50 (MOLT-4 leukemia) was 300 nM and the TGI (MOLT-4 leukemia) was greater than 100000 nM. For the same compound, the GI50 (RPMI-8226 leukemia) was 344 nM, the TGI (RPMI-8226 leukemia) was 2090 nM and the GI50 (MDA-MB-435) was 561 nM. For the same compound, the TGI (MDA-MB-435) was greater than 100000 nM, the GI50 (SNB-75 CNS) was 328 nM and the TGI (SNB-75 CNS) was greater than 33800 nM. For the same compound, the GI50 (BT-549 breast) was 374 nM, the TGI (BT-549 breast) was 2830 nM and the GI50 (U251 CNS) was 305 nM. It also gave a GI50 (SNB-19 CNS) of 337 nM, a TGI (SNB-19 CNS) greater than 100000 nM and a GI50 (T-47D breast) of 225 nM. For the same compound, the TGI (T-47D breast) was 1910 nM, the GI50 (SF-539 CNS) was 106 nM and the TGI (SF-539 CNS) was 1360 nM. It also gave a GI50 (CCRF-CEM leukemia) of 186 nM, a TGI (CCRF-CEM leukemia) of 1210 nM and a GI50 (M14 melanoma) of 425 nM. For the same compound, the TGI (M14 melanoma) was 2470 nM, the GI50 (DU-145 prostate) was 1600 nM and the TGI (DU-145 prostate) was greater than 100000 nM. The GI50 (UO-31 renal) was 1380 nM, the TGI (UO-31 renal) was 5230 nM and the GI50 (SK-MEL-2 melanoma) was 765 nM. The TGI (SK-MEL-2 melanoma) was 9460 nM, the GI50 (SK-MEL-5 melanoma) was 492 nM and the TGI (SK-MEL-5 melanoma) was 2160 nM. It also gave a GI50 (CAKI-1 renal) of 1240 nM, a TGI (CAKI-1 renal) greater than 20900 nM and a GI50 (SK-MEL-28 melanoma) of 532 nM. For the same compound, the TGI (SK-MEL-28 melanoma) was greater than 100000 nM, the GI50 (HCT-15 colon) was 1980 nM and the TGI (HCT-15 colon) was 11700 nM. The GI50 (IGROV1 ovarian) was 355 nM and the TGI (IGROV1 ovarian) was 11600 nM.
